{
  "source": "patent US20140051664A1",
  "about": "“COMBINATION THERAPY OF HSP90 INHIBITORY COMPOUNDS WITH RADIOTHERAPY” (SYNTA PHARMACEUTICALS CORP., priority 2011, published 2014)",
  "key": {"[1]": {"test": "Body weight and systemic toxicity in HeLaHL tumor-bearing Nude mice of the xenograft study", "assay_type": "in vivo", "conditions": "for animals removed from the study due to >20% body weight loss: 8 mice/group; for average bodyweight change relative to the start of the study: over the course of the study", "description": "Eight week old, female homozygous Crl:CD1-Foxn1^nu/nu (Nude) mice were obtained from Charles River Laboratories (Wilmington, Mass., USA). Animals were housed 4-5/cage in micro-isolators, with a 12 hr/12 hr light/dark cycle, acclimated for at least 1 week prior to use and fed normal laboratory chow ad libitum. Studies were conducted on animals at 10 weeks of age at implantation. To implant HeLaHL tumor cells into Nude mice, cell cultures were trypsinized as above and centrifuged to pellet the cells. The supernatant was aspirated and the cell pellet was resuspended at a concentration of 1×10^8 cells/mL in non-supplemented media. Cell concentration was determined using a hemocytometer. Using a 27 gauge needle and 1 cc syringe, 0.1 mL of the cell suspension was injected subcutaneously into the flanks of Nude mice. Tumor volumes (V) were calculated by caliper measurement of the width (W), length (L) and thickness (T) of tumors using the following formula: V=0.5236×(L×W×T).\nTo formulate Compound 1 in 10/18 DRD, stock solutions of Compound 1 were prepared by dissolving the appropriate amounts of the compound in dimethyl sulfoxide (DMSO) by sonication in an ultrasonic water bath. Stock solutions were prepared weekly, stored at −20° C. and diluted fresh each day for dosing. A solution of 20% Cremophor RH40 (polyoxyl 40 hydrogenated castor oil; BASF Corp., Aktiengesellschaft, Ludwigshafen, Germany) in 5% dextrose in water (D5W; Abbott Laboratories, North Chicago, Ill., USA) was also prepared by first heating 100% Cremophor RH40 at 50-60° C. until liquefied and clear, diluting 1:5 with 100% D5W, reheating again until clear and then mixing well. This solution was stored at room temperature for up to 3 months prior to use. To prepare 10/18 DRD formulations for daily dosing, DMSO stock solutions were diluted 1:10 with 20% Cremophor RH40. The final 10/18 DRD formulation for dosing contained 10% DMSO, 18% Cremophor RH40, 3.6% dextrose, 68.4% water and the appropriate amount of test article. Animals were intravenously (i.v.) injected with this formulation at 10 mL per kg body weight on one day each week (on the same day with one of the 3 weekly radiation doses) for a total of 4 doses.\nAnimals were irradiated using a calibrated ^137Cs gamma-ray (0.662 MeV) Model 30 Mark I irradiator (J. L. Shepherd & Associates, San Fernando, Calif., USA). Tumor-bearing animals were anesthetized for approximately 4 minutes with inhaled isoflurane (IsoFlo, Abbott Laboratories, North Chicago, Ill., USA) delivered on a stream of oxygen at 0.8 L/min and 3% volume/volume on a mobile anesthesia machine (VetEquip, Pleasanton, Calif., USA). […] Anesthetized animals were positioned in the irradiator approximately 2.5 cm in front of the ^137Cs source using a restraint device capable of holding 5 animals (J. L Shepherd & Associates). Ionizing radiation was focused on the subcutaneously implanted HeLaHL tumors through a 1 cm wide collimator (J. L. […]\nThe ability of Compound 1 to enhance the in vivo anti-tumor activity of ionizing radiation was investigated. Tumor-bearing animals (8 mice/group) were i.v. injected 1 time per week for a total of 4 doses (open arrowheads) with 10 mL/kg of 10/18 DRD vehicle with or without 150 mg/kg Compound 1. Animals were also irradiated 3 times per week for a total of 12 doses (closed arrowheads) with 2 Gy radiation. In the combination treatment group, animals were dosed with Compound 15 hr before being irradiated on days on which both treatments were delivered together. Each group that was not dosed with Compound 1 was instead dosed with 10/18 DRD vehicle as a mock treatment. Each group that was not irradiated was instead anesthetized and restrained as a mock irradiation. Average tumor volumes for each group were determined every 3-5 days (error bars represent +/−SEM). […]"}, "[2]": {"tested_on": "HeLaHL human cervical carcinoma tumor cells", "test": "Nude mouse xenograft study: in vivo growth of HeLaHL tumors, Compound 1 with or without fractionated ionizing radiation", "conditions": "HeLaHL xenograft in Nude mice", "description": "The human cervical carcinoma cancer cell line, HeLaHL, carrying a human Hsp70 promoter-luciferase reporter construct, was obtained from the laboratory of Dr. Richard Morimoto (Northwestern University, Evanston, Ill., USA). The cells were cultured in Dulbecco's Modified Eagle growth media prepared with 10% fetal bovine serum (FBS), 1% 100×HEPES, 1% 100× Penicillin-Streptomycin, 1% 100×L-glutamine, 1% 100× sodium pyruvate and 1% 100×MEM non-essential amino acids. FBS was obtained from American Type Culture Collection (Manassas, Va., USA) and all other reagents were obtained from Invitrogen Corp. (Carlsbad, Calif., USA). Cells that had been cryopreserved in liquid nitrogen were rapidly thawed at 37° C. and transferred to a tissue culture flask containing growth media and then incubated at 37° C. in a 5% CO2 incubator. To expand the cell line, cultures were passaged every 3 to 4 days by washing with 10 mL of room temperature phosphate buffered saline (PBS) and then disassociating cells by adding 5 mL 1× trypsin-EDTA until the cells detached from the surface of the flask. […]\nEight week old, female homozygous Crl:CD1-Foxn1^nu/nu (Nude) mice were obtained from Charles River Laboratories (Wilmington, Mass., USA). […] Cell concentration was determined using a hemocytometer. […] Tumor volumes (V) were calculated by caliper measurement of the width (W), length (L) and thickness (T) of tumors using the following formula: V=0.5236×(L×W×T).\nHeLaHL tumors were then permitted to develop in vivo until the majority reached 90-240 mm^3 in tumor volume, which required approximately 2½ weeks following implantation. […] Animals were randomized into treatment groups so that the average tumor volumes of each group were similar at the start of dosing. % T/C values, as a measure of efficacy, were determined as follows: • (i) If ΔT>0: % T/C=(ΔT/ΔC)×100 • (ii) If ΔT<0: % T/C=(ΔT/T0)×100 • (iii) ΔT=Change in average tumor volume between start of dosing and the end of study. • (iv) ΔC=Change in average tumor volume between start of dosing and the end of study. • (v) T0=Average tumor volume at start of dosing. […]"}},
  "data": [
    {"smiles": "CC(C)c1cc(-c2nnc(O)n2-c2ccc3c(ccn3C)c2)c(O)cc1O", "note": "[Compound 1, 3-(2,4-dihydroxy-5-isopropyl-phenyl)-4-(1-methyl-indol-5-yl)-5-hydroxy-[1,2,4] triazole]", "values": [
      {"measurement": "death due to excessive body weight loss", "setting": "[1]; 2 Gy radiation combined with 150 mg/kg Compound 1, among the animals removed from the study", "value": "One of the animals removed later died on Day 45"},
      {"measurement": "animals removed from the study due to >20% body weight loss", "setting": "[1]; 2 Gy radiation combined with 150 mg/kg Compound 1, toxicity on Day 42", "value": "2/8"},
      {"measurement": "animals removed from the study due to >20% body weight loss", "setting": "[1]; 4 Gy radiation combined with 150 mg/kg Compound 1, toxicity on Day 34", "value": "1/8"},
      {"measurement": "average bodyweight change relative to the start of the study", "setting": "[1]; Compound 1 150 mg/kg plus 2 Gy radiation 3 times per week", "value": 0.4, "unit": "%"},
      {"measurement": "average bodyweight change relative to the start of the study", "setting": "[1]; Compound 1 150 mg/kg plus 3-4 Gy radiation 3 times per week", "value": 1.2, "unit": "%"},
      {"measurement": "average bodyweight change relative to the start of the study", "setting": "[1]; Compound 1 alone, 150 mg/kg i.v. 1 time per week", "value": 3.2, "unit": "%"},
      {"measurement": "% T/C value", "setting": "[2]; 150 mg/kg Compound 1 alone, i.v., 1 time per week, 4 doses, 10/18 DRD, mock irradiation", "value": 28, "unit": "%"},
      {"measurement": "% T/C value", "setting": "[2]; 150 mg/kg Compound 1 i.v. 1 time per week combined with 2 Gy radiation 3 times per week (12 doses), Compound 1 dosed 5 hr before irradiation", "value": "−36", "unit": "%"},
      {"measurement": "% T/C value", "setting": "[2]; 150 mg/kg Compound 1 i.v. 1 time per week combined with 3-4 Gy radiation 3 times per week (4 Gy reduced to 3 Gy on Day 40), Compound 1 dosed 5 hr before irradiation", "value": "−73", "unit": "%"}
    ]}
  ]
}
